Source: US12637478B2, “Compound, preparation method thereof, and antibiotic composition comprising same” (priority 2020, dated 2026)
Converted amounts (≈) assume the structure as drawn. Like-named read-outs stand apart in the source and are kept apart here.

Experiments:
C. difficile 173 = experiment: MIC by agar dilution against Clostridioides difficile, test strain 17; format: cell-based
E. faecalis = experiment: MIC by broth microdilution (aerobic pathogens), test strain 7; format: cell-based; conditions: Enterococcus faecalis; test strain 7, E. faecalis; read-out: MIC
Procedure: (§1) The antibacterial activity of the compounds of Examples 1 to 48 of the present invention against aerobic pathogens were evaluated by measuring the minimum concentration of the antibiotic capable of inhibiting bacterial growth by 90% compared to the growth of the non-drug treated control group. MIC was measured by the broth microdilution method based on CLSI standards [Reference: Clinical and Laboratory Standards Institute Document. (2000) Methods for Dilution Antimicrobial Susceptibility Test for Bacteria that Grow Aerobically-Fifth Edition: M7-A5. CLSI, Villanova, PA].
(§2) All 13 strains such as methicillin susceptible Staphylococcus aureus (MSSA), methicillin resistant Staphylococcus aureus (MRSA), Vancomycin resistant Staphylococcus aureus (VRSA), Staphylococcus epidermidis, methicillin resistant Staphylococcus epidermidis, Enterococcus faecalis, Vancomycin resistant Enterococcus faecalis, Enterococcus faecium, Vancomycin resistant Enterococcus faecium were used.

C. difficile 159 = experiment: MIC by agar dilution against Clostridioides difficile, test strain 15; format: cell-based
S. aureus^MS [1] = experiment: MIC by broth microdilution (aerobic pathogens), test strain 1; format: cell-based; conditions: Staphylococcus aureus
Procedure: as §1, §2

S. epidermis^MR = experiment: MIC by broth microdilution (aerobic pathogens), test strain 6; format: cell-based, Methicillin resistant Staphylococcus epidermidis; conditions: Staphylococcus epidermidis
Procedure: as §1, §2

E. faecium = experiment: MIC by broth microdilution (aerobic pathogens), test strain 10; format: cell-based; conditions: Enterococcus faecium; test strain 10, E. faecium; read-out: MIC
Procedure: as §1, §2

C. difficile 152 = experiment: MIC by agar dilution against Clostridioides difficile, test strain 14; format: cell-based
E. faecium^LinR = experiment: MIC by broth microdilution (aerobic pathogens), test strain 12; format: cell-based, Linezolid resistant Enterococcus faecium; conditions: Enterococcus faecium; test strain 12, E. faecium^LinR (linezolid resistant); read-out: MIC
Procedure: as §1, §2

S. aureus^MS [2] = experiment: MIC by broth microdilution (aerobic pathogens), test strain 2; format: cell-based; conditions: Staphylococcus aureus
Procedure: as §1, §2

E. faecium^VRE = experiment: MIC by broth microdilution (aerobic pathogens), test strain 11; format: cell-based, Vancomycin resistant Enterococcus faecium; conditions: Enterococcus faecium; test strain 11, E. faecium^VRE (vancomycin resistant); read-out: MIC
Procedure: as §1, §2

S. epidermis = experiment: MIC by broth microdilution (aerobic pathogens), test strain 5; format: cell-based; conditions: Staphylococcus epidermidis
Procedure: as §1, §2

C. difficile 174 = experiment: MIC by agar dilution against Clostridioides difficile, test strain 18; format: cell-based
C. difficile 9689 = experiment: MIC by agar dilution against Clostridioides difficile, test strain 13; format: cell-based
S. aureus^VR = experiment: MIC by broth microdilution (aerobic pathogens), test strain 4; format: cell-based, Vancomycin resistant Staphylococcus aureus; conditions: Staphylococcus aureus; test strain 4, S. aureus^VR (vancomycin resistant); read-out: MIC
Procedure: as §1, §2

C. difficile 181 = experiment: MIC by agar dilution against Clostridioides difficile, test strain 19; format: cell-based; conditions: test strain 19, C. difficile 181, anaerobic, agar dilution, read-out: MIC
E. faecalis^VanA = experiment: MIC by broth microdilution (aerobic pathogens), test strain 8; format: cell-based, Vancomycin resistant Enterococcus faecalis; conditions: Enterococcus faecalis; test strain 8, E. faecalis^VanA (vancomycin resistant); read-out: MIC
Procedure: as §1, §2

C. difficile 161 = experiment: MIC by agar dilution against Clostridioides difficile, test strain 16; format: cell-based; conditions: test strain 16, C. difficile 161, anaerobic, agar dilution, read-out: MIC
S. aureus^MR = experiment: MIC by broth microdilution (aerobic pathogens), test strain 3; format: cell-based, Methicillin resistant Staphylococcus aureus; conditions: Staphylococcus aureus; test strain 3, S. aureus^MR (methicillin resistant); read-out: MIC
Procedure: as §1, §2

E. faecalis^LinR = experiment: MIC by broth microdilution (aerobic pathogens), test strain 9; format: cell-based, Linezolid resistant Enterococcus faecalis; conditions: Enterococcus faecalis
Procedure: as §1, §2

M. abscessus = experiment: MIC by resazurin (REMA) assay against Mycobacterium, test strain 23; format: cell-based; conditions: Mycobacteroides abscessus
Procedure: In order to test the antibacterial activity, the medium of Mycobacterium cultured to late log phase was diluted so as to be 4.0×10^5 cells/well in Middlebrook 7H10 agar medium (Difco) supplemented with 10% oleic acid, albumin, dextrose, catalase (OADC, Becton Dickinson) and 0.05% Tween 80 (Sigma Aldrich) and was dispensed into a 96-well plate. The compounds were treated so that DMSO was 1%, and after 3 days, a 0.025% resazurin (REMA) solution was dispensed, and the growth of the bacteria was confirmed after culturing. The MIC value was measured for the antibacterial activity through resazurin (excitation 530 nm, emission 590 nm).

[3] = test strain 17, C. difficile 173, anaerobic, agar dilution, read-out: MIC
[4] = test strain 15, C. difficile 159, anaerobic, agar dilution, read-out: MIC
[5] = test strain 1, S. aureus^MS, read-out: MIC
[6] = test strain 6, S. epidermis^MR (methicillin resistant), read-out: MIC
[7] = test strain 14, C. difficile 152, anaerobic, agar dilution, read-out: MIC
[8] = test strain 2, S. aureus^MS, read-out: MIC
[9] = test strain 5, S. epidermis, read-out: MIC
[10] = test strain 18, C. difficile 174, anaerobic, agar dilution, read-out: MIC
[11] = test strain 13, C. difficile 9689, anaerobic, agar dilution, read-out: MIC
[12] = test strain 9, E. faecalis^LinR (linezolid resistant), read-out: MIC

| Structure (SMILES) | MIC (C. difficile 173; [3]) [µg/mL] | MIC (E. faecalis) [µg/mL] | MIC (C. difficile 159; [4]) [µg/mL] | MIC (S. aureus^MS [1]; [5]) [µg/mL] | MIC (S. epidermis^MR; [6]) [µg/mL] | MIC (E. faecium) [µg/mL] | MIC (C. difficile 152; [7]) [µg/mL] | MIC (E. faecium^LinR) [µg/mL] | MIC (S. aureus^MS [2]; [8]) [µg/mL] | MIC (E. faecium^VRE) [µg/mL] | MIC (S. epidermis; [9]) [µg/mL] | MIC (C. difficile 174; [10]) [µg/mL] | MIC (C. difficile 9689; [11]) [µg/mL] | MIC (S. aureus^VR) [µg/mL] | MIC (C. difficile 181) [µg/mL] | MIC (E. faecalis^VanA) [µg/mL] | MIC (C. difficile 161) [µg/mL] | MIC (S. aureus^MR) [µg/mL] | MIC (E. faecalis^LinR; [12]) [µg/mL] | further results |
| --- | --- | --- | --- | --- | --- | --- | --- | --- | --- | --- | --- | --- | --- | --- | --- | --- | --- | --- | --- | --- |
| C/C=C(\NC(=O)c1csc(-c2csc(-c3ccc4c(n3)-c3csc(n3)[C@H]([C@@H](C)O)NC(=O)c3csc(n3)[C@H](C(C)C)NC(=O)c3csc(n3)/C(=C/C)NC(=O)[C@H]([C@@H](C)O)NC(=O)c3csc-4n3)n2)n1)C(=O)NCCn1cnc([N+](=O)[O-])n1 [Compound 42] | 0.5 (≈ 0.408 µM) | 0.5 (≈ 0.408 µM) | 0.5 (≈ 0.408 µM) | 1 (≈ 0.815 µM) | 0.5 (≈ 0.408 µM) | 1 (≈ 0.815 µM) | 0.5 (≈ 0.408 µM) | 1 (≈ 0.815 µM) | 1 (≈ 0.815 µM) | 1 (≈ 0.815 µM) | 0.5 (≈ 0.408 µM) | 0.5 (≈ 0.408 µM) | 0.5 (≈ 0.408 µM) | 1 (≈ 0.815 µM) | 0.5 (≈ 0.408 µM) | 0.5 (≈ 0.408 µM) | 1 (≈ 0.815 µM) | 1 (≈ 0.815 µM) | 0.5 (≈ 0.408 µM) | – |
| C/C=C(\NC(=O)c1csc(-c2csc(-c3ccc4c(n3)-c3csc(n3)[C@H]([C@@H](C)O)NC(=O)c3csc(n3)[C@H](C(C)C)NC(=O)c3csc(n3)/C(=C/C)NC(=O)[C@H]([C@@H](C)O)NC(=O)c3csc-4n3)n2)n1)C(=O)NCCCN1CCOCC1 [Compound 48] | – | 0.5 (≈ 0.412 µM) | – | 0.5 (≈ 0.412 µM) | 0.5 (≈ 0.412 µM) | 0.5 (≈ 0.412 µM) | – | 1 (≈ 0.824 µM) | 0.5 (≈ 0.412 µM) | 1 (≈ 0.824 µM) | 0.5 (≈ 0.412 µM) | – | – | 1 (≈ 0.824 µM) | – | 0.5 (≈ 0.412 µM) | – | 1 (≈ 0.824 µM) | 1 (≈ 0.824 µM) | – |
| C/C=C1\NC(=O)[C@H]([C@@H](C)O)NC(=O)c2csc(n2)-c2ccc(-c3nc(-c4nc(C(=O)NC5(C(=O)NCCCB(O)O)CC5)cs4)cs3)nc2-c2csc(n2)[C@H]([C@@H](C)O)NC(=O)c2csc(n2)[C@H](C(C)C)NC(=O)c2csc1n2 [Compound 10] | 0.06 (≈ 0.0512 µM) | 0.25 (≈ 0.213 µM) | 0.25 (≈ 0.213 µM) | 0.125 (≈ 0.107 µM) | 0.125 (≈ 0.107 µM) | 0.25 (≈ 0.213 µM) | 0.06 (≈ 0.0512 µM) | 0.5 (≈ 0.427 µM) | 0.0625 (≈ 0.0533 µM) | – | 0.0625 (≈ 0.0533 µM) | 0.06 (≈ 0.0512 µM) | 0.5 (≈ 0.427 µM) | 0.5 (≈ 0.427 µM) | 0.25 (≈ 0.213 µM) | 0.25 (≈ 0.213 µM) | 0.125 (≈ 0.107 µM) | 0.5 (≈ 0.427 µM) | 0.125 (≈ 0.107 µM) | – |
| C/C=C1\NC(=O)[C@H]([C@@H](C)O)NC(=O)c2csc(n2)-c2ccc(-c3nc(-c4nc(C(=O)NC5(C(=O)NN6CC(=O)NC6=O)CC5)cs4)cs3)nc2-c2csc(n2)[C@H]([C@@H](C)O)NC(=O)c2csc(n2)[C@H](C(C)C)NC(=O)c2csc1n2 [Compound 23] | – | – | – | – | – | – | – | – | – | – | – | – | – | – | – | – | – | – | – | MIC (C. difficile 173; 173): 1 µg/mL (≈ 0.844 µM); MIC (C. difficile 159; 159): 0.5 µg/mL (≈ 0.422 µM); MIC (S. aureus^MS [1]): 0.5 µg/mL (≈ 0.422 µM); MIC (S. epidermis^MR): 1 µg/mL (≈ 0.844 µM); MIC (C. difficile 152; 152): 0.25 µg/mL (≈ 0.211 µM); MIC (S. aureus^MS [2]): 0.5 µg/mL (≈ 0.422 µM); MIC (S. epidermis): 1 µg/mL (≈ 0.844 µM); MIC (C. difficile 174; 174): 0.125 µg/mL (≈ 0.106 µM); MIC (C. difficile 9689; 9689): 0.25 µg/mL (≈ 0.211 µM); MIC (M. abscessus): 0.226 µg/mL (≈ 0.191 µM); MIC (E. faecalis^LinR): 1 µg/mL (≈ 0.844 µM) |
| C/C=C(\NC(=O)c1csc(-c2csc(-c3ccc4c(n3)-c3csc(n3)[C@H]([C@@H](C)O)NC(=O)c3csc(n3)[C@H](C(C)C)NC(=O)c3csc(n3)/C(=C/C)NC(=O)[C@H]([C@@H](C)O)NC(=O)c3csc-4n3)n2)n1)C(=O)NCCN1CCN(C(C)C)CC1 [Compound 47] | – | 0.5 (≈ 0.403 µM) | – | 0.5 (≈ 0.403 µM) | 0.5 (≈ 0.403 µM) | 0.5 (≈ 0.403 µM) | – | 1 (≈ 0.806 µM) | 0.5 (≈ 0.403 µM) | 1 (≈ 0.806 µM) | 0.5 (≈ 0.403 µM) | – | – | 1 (≈ 0.806 µM) | – | 0.5 (≈ 0.403 µM) | – | 1 (≈ 0.806 µM) | 1 (≈ 0.806 µM) | – |
